Reference: US20240132485A1, “HETEROCYCLIC CULLIN RING UBIQUITIN LIGASE COMPOUNDS AND USES THEREOF” (CEMM - FORSCHUNGSZENTRUM FÜR MOLEKULARE MEDIZIN GMBH, priority 2020, published 2024)

What was measured:
[1] = test system: KBM7 cells harboring a hypomorphic UBE2M mutation; assay: KBM7 CTG EC50 assay (UBE2M knock-out); assay type: cell-based; conditions: Homo sapiens, KBM-7; 72 h incubation, CellTiter-Glo; read-out: KBM7 CTG EC50 (UBE2M knock-out) Activity Class
From the text: (§1) This is a cell viability assay to measure the desired therapeutic effect, i.e. killing of cancer cells. The UBE2M mutant cell line has impaired activity of the Cullin-RING ligase system due to a hypomorphic mutation in UBE2M, which is required for activation of these E3 ligases. By comparison with WT cells, it is possible to estimate the contribution of Cyclin K degradation (which is reduced in UBE2M mut cells) compared to kinase inhibition of CDK12 (which is unaffected in UBE2M mut cells). Since the UBE2M mutation only reduces CRL function without fully abrogating it, this assay may slightly underestimate the effect of degradation because, at high compound concentrations, degradation may still be observed.
(§2) KBM7 cells (wild-type or harboring α hypomorphic UBE2M mutation (Mayor-Ruiz et al., 2019)) were seeded in a white opaque 384-well plate at a density of 1000 cells per well in duplicate, in full medium (IMDM+10% FBS+1% penicillin-streptomycin). Cells were treated with compounds in a 10-point titration with a dilution factor of 1:4 (range: 0 to 20 μM). After 72 h of incubation, the cell viability was determined using the CellTiter-Glo® 2.0 reactant (Promega), pre-diluted 1:4 in mQ water. The luminescence signal was measured using the multimode plate reader EnVision 2105 (Perkin Elmer).

[2] = biological target: T1, DDB1-CDK12/Cyclin K ternary complex (Homo sapiens, UniProt Q16531+Q9NYV4); assay: NanoBRET fold-change assay (HaloTag_CDK12 / NanoLuc_DDB1 in HEK293T); assay type: cell-based; conditions: 10 μM compound, 10 minutes
T1 construct: expressed in transfected cells; host or cells: HEK293T wildtype cells, transient PEI transfection
Protocol: (§3) This assay measures the interaction/recruitment of CDK12/Cyclin K to DDB1, mechanistically validating the molecular glue pharmacology.
(§4) HEK293T wildtype cells are seeded 800 k cells/well (DMEM+10% FBS+1% PS) in a 6-well plate and allowed to attach for ˜7 hours followed by a transient transfection of 1.5 μg HaloTag_CDK12 Plasmid [Table 1] and 0.15 μg NanoLuc_DDB1 plasmid [Table 1] per well using PEI. Cells are incubated at 37° C., 5% CO2, harvested after 24 hours and resuspended in assay media (Opti-MEM Reduced serum media, no phenol red, 4% FBS, 1% PS). Cells are adjusted to 2.3×10^5 cells/ml and treated with HaloTag 618 Ligand at 100 nM or DMSO. 8000 cells are seeded per well in triplicates per compound in a white-walled 384-well plate, one negative control treated with DMSO instead of HaloTag 618 Ligand is seeded in triplicates and the 384-well plate is incubated at 37° C., 5% CO2 overnight. Compound stock solutions are prepared in Opti-MEM−/− (Opti-MEM I Reduced serum media, no phenol red) at 8× and used to treat the cells at a final concentration of 1× at 10 μM. Cells and compounds are incubated for 10 minutes at room temperature followed by addition of NanoBRET Nano-Glo substrate following manufacturer's protocols. The plate is shaken for 30 sec followed by immediate measurement of donor emission (NanoBRET Blue at 460 nm) and acceptor emission (BRET Deep Red at 647 nm) for 0.5 s.

[3] = test system: KBM7 cells (wild-type); assay: KBM7 CTG EC50 assay (UBE2M wild-type); assay type: cell-based, human; conditions: for EC50: Homo sapiens, KBM-7, 72 h incubation, CellTiter-Glo, read-out: KBM7 CTG EC50 (UBE2M wild-type) Activity Class; for Ratio UBE2M WT to KO: ratio of anti-proliferative activity in KBM7 wild-type versus UBE2M knock-out cells (fold)
From the text: as §1, §2

[4] = biological target: T1, DDB1-CDK12/Cyclin K ternary complex; assay: NanoBRET EC50 assay (HaloTag_CDK12 / NanoLuc_DDB1 in HEK293T); assay type: cell-based; conditions: for EC50 / NanoBRET EC50 Activity Class: 10-point titration from 20 μM, HEK293T; for EC50: read-out: NanoBRET EC50 Activity Class
Protocol: as §3, §4
The assay setup is identical to “NanoBRET fold change experimental setup”. Instead of treating cells in […] with 10 μM compound, a 10-point titration starting at 20 μM is performed with a dilution factor of 1:4, covering α range of 20000 nM-0.076 nM.

[5] = test system: CCNK; assay: NanoLuc-CCNK degradation assay (HEK293T_Nluc_CCNK-tagged cells); assay type: cell-based; conditions: for NanoLuc-CCNK degradation DC50 Activity Class / DC50: 4 h incubation, HEK293T_Nluc_CCNK-tagged cells; for DC50: read-out: NanoLuc-CCNK degradation DC50 Activity Class
Protocol: The assay helps to elucidate the mechanistic explanation of the cell killing effect of the compounds of the present invention. Cyclin K is fused to a nanoluciferase, light emission is measured as a proxy of Cyclin K abundance. Potency of Cyclin K degradation and cytotoxicity of KBM7 correlate extremely well, further supporting Cyclin K degradation being the main driver of the cell killing, as opposed to inhibition of CDK12 catalytic activity.
HEK293T_Nluc_CCNK-tagged cells were engineered by integrating a nanoluciferase tag at the N-terminus of the endogenous locus of CCNK using CRISPR-Cas9 technology. Briefly, 5.5 million HEK293T cells were co-transfected by PEI with a 1:1 ratio of cutting vector (sgRNA: […]) and repair template (4 μg total plasmid) as previously described (Brand and Winter, 2019). The repair sequence comprises a cassette of puromycinR-P2A-HA-Nluc-(G4S)3 (P2A: self-cleaving peptide 2A, HA: HA-tag, (G4S)3: flexible linker), surrounded by 20-nucleotide microhomologies matching the genomic locus. After 3 days of incubation, the recombinant population was selected by puromycin treatment (2 μg/ml, 5-day treatment). A monoclonal population was obtained by limiting dilution and cassette integration validated by Sanger sequencing.
HEK293T_Nluc_CCNK-tagged cells were seeded in a white opaque 384-well plate at a density of 8000 cells per well in duplicate, in full medium (Opti-MEM I+4% FBS+1% PS). Cells were treated with compounds in a 10-point titration (range: 0 to 10 μM, 1:4 dilution). After 4 h of incubation, Nano-Glo substrate (Promega), pre-diluted in serum-free medium (Opti-MEM I), was added to the cells (1:500 final dilution). The luminescence signal was directly measured using the multimode plate reader EnVision 2105 (Perkin Elmer).

T1 sequence (Q9NYV4 whole entry): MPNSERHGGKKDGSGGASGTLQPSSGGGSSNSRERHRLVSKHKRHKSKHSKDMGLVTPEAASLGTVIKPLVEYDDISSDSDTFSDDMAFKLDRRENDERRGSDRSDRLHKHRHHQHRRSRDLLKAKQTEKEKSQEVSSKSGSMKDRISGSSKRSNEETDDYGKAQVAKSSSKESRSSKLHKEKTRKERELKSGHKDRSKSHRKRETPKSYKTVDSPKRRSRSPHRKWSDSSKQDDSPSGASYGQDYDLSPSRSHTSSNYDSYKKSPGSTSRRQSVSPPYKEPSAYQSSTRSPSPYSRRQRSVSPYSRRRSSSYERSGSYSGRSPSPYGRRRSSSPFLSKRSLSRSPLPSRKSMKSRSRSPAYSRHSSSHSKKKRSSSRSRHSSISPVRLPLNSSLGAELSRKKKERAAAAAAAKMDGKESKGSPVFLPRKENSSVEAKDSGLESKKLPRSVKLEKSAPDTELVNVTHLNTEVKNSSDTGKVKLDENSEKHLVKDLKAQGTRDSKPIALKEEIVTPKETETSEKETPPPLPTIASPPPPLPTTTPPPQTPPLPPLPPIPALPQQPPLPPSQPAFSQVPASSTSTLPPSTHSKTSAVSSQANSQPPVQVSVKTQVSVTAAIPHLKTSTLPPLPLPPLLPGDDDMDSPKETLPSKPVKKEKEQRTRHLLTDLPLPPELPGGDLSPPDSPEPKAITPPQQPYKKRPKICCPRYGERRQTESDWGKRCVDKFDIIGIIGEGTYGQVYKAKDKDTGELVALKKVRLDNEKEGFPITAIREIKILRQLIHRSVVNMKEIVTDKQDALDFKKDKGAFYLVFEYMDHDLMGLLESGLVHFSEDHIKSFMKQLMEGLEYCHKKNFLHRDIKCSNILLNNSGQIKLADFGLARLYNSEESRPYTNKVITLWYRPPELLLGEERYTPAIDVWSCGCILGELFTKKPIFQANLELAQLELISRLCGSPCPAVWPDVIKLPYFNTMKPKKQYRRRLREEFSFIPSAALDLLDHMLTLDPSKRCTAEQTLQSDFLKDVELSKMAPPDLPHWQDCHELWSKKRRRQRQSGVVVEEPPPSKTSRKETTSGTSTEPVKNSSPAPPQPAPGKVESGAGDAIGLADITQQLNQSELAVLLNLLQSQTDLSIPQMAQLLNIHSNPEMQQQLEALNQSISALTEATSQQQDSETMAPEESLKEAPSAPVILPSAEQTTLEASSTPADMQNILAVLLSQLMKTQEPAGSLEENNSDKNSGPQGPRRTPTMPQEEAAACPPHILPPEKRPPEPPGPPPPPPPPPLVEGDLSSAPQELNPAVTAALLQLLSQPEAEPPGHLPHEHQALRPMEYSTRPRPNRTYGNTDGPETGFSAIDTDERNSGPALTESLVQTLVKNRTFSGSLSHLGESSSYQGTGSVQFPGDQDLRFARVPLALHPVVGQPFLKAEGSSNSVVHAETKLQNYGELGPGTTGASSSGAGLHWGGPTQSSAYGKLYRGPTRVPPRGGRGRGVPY
T1 sequence (Q16531 whole entry): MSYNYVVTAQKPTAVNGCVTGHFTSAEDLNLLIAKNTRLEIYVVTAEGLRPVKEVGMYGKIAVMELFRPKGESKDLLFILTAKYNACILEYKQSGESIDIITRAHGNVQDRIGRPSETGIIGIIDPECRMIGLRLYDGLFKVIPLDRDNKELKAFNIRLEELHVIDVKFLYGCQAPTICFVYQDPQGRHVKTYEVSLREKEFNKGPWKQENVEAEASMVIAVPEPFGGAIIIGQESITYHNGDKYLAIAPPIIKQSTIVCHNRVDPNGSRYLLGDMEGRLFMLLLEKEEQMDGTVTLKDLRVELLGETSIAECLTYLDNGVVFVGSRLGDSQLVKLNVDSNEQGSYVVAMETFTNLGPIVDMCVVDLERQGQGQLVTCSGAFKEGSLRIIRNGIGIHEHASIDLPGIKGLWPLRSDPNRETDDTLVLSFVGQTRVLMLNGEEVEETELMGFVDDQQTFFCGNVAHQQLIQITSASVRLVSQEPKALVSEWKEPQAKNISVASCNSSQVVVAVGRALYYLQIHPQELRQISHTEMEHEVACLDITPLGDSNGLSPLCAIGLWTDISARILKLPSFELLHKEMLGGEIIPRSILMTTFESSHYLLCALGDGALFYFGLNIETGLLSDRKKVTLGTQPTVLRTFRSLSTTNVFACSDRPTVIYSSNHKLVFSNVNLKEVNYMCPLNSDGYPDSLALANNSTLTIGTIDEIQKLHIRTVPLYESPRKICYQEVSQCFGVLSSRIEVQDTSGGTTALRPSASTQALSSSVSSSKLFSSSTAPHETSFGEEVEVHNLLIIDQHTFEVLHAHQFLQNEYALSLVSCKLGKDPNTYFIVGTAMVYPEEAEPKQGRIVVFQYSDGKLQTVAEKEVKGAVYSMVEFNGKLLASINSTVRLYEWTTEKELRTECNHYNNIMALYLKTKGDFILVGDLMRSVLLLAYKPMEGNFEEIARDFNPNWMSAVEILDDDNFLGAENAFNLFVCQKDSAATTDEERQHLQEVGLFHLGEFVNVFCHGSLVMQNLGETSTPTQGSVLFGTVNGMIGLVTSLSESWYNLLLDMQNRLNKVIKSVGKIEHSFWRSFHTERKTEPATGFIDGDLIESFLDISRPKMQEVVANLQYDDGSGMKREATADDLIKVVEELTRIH
T1 sequence (O75909 whole entry partner): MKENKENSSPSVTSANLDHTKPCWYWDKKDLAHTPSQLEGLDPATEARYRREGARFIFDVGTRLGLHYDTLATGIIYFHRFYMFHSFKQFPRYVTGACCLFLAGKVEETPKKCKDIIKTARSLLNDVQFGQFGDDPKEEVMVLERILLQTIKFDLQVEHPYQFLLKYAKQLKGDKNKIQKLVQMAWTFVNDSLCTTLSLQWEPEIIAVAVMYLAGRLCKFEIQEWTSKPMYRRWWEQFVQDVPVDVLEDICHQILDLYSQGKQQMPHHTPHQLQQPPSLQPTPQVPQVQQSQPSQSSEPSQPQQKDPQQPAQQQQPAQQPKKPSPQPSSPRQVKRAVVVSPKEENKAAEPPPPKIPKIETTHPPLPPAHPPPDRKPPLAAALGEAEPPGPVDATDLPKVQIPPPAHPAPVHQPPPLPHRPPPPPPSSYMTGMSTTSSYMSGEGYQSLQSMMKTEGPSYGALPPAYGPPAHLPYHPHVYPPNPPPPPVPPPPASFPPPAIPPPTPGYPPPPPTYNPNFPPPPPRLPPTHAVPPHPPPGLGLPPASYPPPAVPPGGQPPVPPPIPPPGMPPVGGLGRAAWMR

| Compound | EC50 [1] [nM] | NanoBRET fold-change Activity Class [2] | EC50 [3] [nM] | Ratio UBE2M WT to KO [3] | EC50 [4] [nM] | NanoLuc-CCNK degradation DC50 Activity Class [5] | DC50 [5] [nM] | activity in NanoBRET assay (ternary complex formation), in words [4] | NanoBRET EC50 Activity Class [4] | activity in NanoLuc CCNK degradation assay, in words [5] | activity in KBM7 cytotoxicity assay, in words [3] |
| --- | --- | --- | --- | --- | --- | --- | --- | --- | --- | --- | --- |
| Cc1cnc(NC(=O)Cc2coc3c(C)c(C)ccc23)s1 [Example 3-1, 2-(6,7-dimethylbenzofuran-3-yl)-N-(5-methylthiazol-2-yl)acetamide] | 500 to 1000 | B (3-4 fold increase) | ≤ 250 | 25.3 | ≤ 250 | B (0.50 μM≤DC50<0.10 μM) |  |  |  |  |  |
| Cc1ccc2c(CC(=O)Nc3ncc(Cl)s3)coc2c1C [Example 3-3, N-(5-chlorothiazol-2-yl)-2-(6,7-dimethylbenzofuran-3-yl)acetamide] | 1000 to 10000 | D (1-2 fold increase) | ≤ 250 | 23.5 | > 10000 |  | > 10000 |  |  |  |  |
| CC(C)c1cnc(NC(=O)Cc2cn3cc(F)ccc3n2)s1 [Example 3-4, 2-(6-fluoroimidazo[1,2-a]pyridin-2-yl)-N-(5-isopropylthiazol-2-yl)acetamide] | 1000 to 10000 | A (greater than 4-fold increase) | ≤ 250 | 82.6 | ≤ 250 | B (0.50 μM≤DC50<0.10 μM) |  |  |  |  |  |
| O=C(Cc1cn2cc(F)ccc2n1)Nc1ncc(C(F)(F)F)s1 [Example 3-5, 2-(6-fluoroimidazo[1,2-a]pyridin-2-yl)-N-(5-(trifluoromethyl)thiazol-2-yl)acetamide] | 250 to 500 | B (3-4 fold increase) | ≤ 250 | 142 |  |  | ≤ 100 | particularly exceptional | C (1.0 μM≤EC50<0.50 μM) | particularly exceptional |  |
| COc1cc(Br)cn2cc(CC(=O)Nc3ncc(C(F)(F)F)s3)nc12 [Example 3-9, 2-(6-bromo-8-methoxyimidazo[1,2-a]pyridin-2-yl)-N-(5-(trifluoromethyl)thiazol-2-yl)acetamide] | ≤ 250 | A (greater than 4-fold increase) | ≤ 250 | 2.0 | ≤ 250 |  | ≤ 100 | exceptional activity |  | exceptional activity | extremely potent activity |
| O=C(Cc1ccc2ncccc2c1)Nc1ncc(C(F)(F)F)s1 [Example 3-14, 2-(quinolin-6-yl)-N-(5-(trifluoromethyl)thiazol-2-yl)acetamide] | ≤ 250 | A (greater than 4-fold increase) | ≤ 250 |  | ≤ 250 |  | ≤ 100 | extremely high activity |  | extremely high activity | extremely potent activity |
| Cc1cc(N2CC(C(=O)Nc3ncc(C(F)(F)F)s3)CC2=O)ccc1F (stereo not shown) [Example 3-17, 1-(4-fluoro-3-methylphenyl)-5-oxo-N-(5-(trifluoromethyl)thiazol-2-yl)pyrrolidine-3-carboxamide] | 250 to 500 | A (greater than 4-fold increase) | ≤ 250 | 17.0 |  |  | ≤ 100 |  | B (0.50 μM≤EC50≤0.25 μM) |  |  |
| O=C(Cc1c[nH]c2cccnc12)Nc1ncc(C(F)(F)F)s1 [Example 3-40, 2-(1H-pyrrolo[3,2-b]pyridin-3-yl)-N-(5-(trifluoromethyl)thiazol-2-yl)acetamide] | > 10000 |  | ≤ 250 | >200 |  | D (10 μM≤DC50<1.0 μM) |  |  | B (0.50 μM≤EC50≤0.25 μM) |  |  |
| CC(C)c1cc(NC(=O)Cc2cn3cc(F)ccc3n2)n[nH]1 [Example 3-57, 2-(6-fluoroimidazo[1,2-a]pyridin-2-yl)-N-(5-isopropyl-1H-pyrazol-3-yl)acetamide] | 1000 to 10000 | B (3-4 fold increase) | ≤ 250 | 146.3 |  | B (0.50 μM≤DC50<0.10 μM) |  |  |  |  |  |
| O=C(Cc1cn2cc(F)ccc2n1)Nc1cc(Br)[nH]n1 [Example 3-58, N-(5-bromo-1H-pyrazol-3-yl)-2-(6-fluoroimidazo[1,2-a]pyridin-2-yl)acetamide] | > 10000 | C (2-3 fold increase) | ≤ 250 | >10 |  |  | > 10000 |  |  |  |  |
| O=C(Cc1cn2cc(F)ccc2n1)Nc1cc(Cl)[nH]n1 [Example 3-60, N-(5-chloro-1H-pyrazol-3-yl)-2-(6-fluoroimidazo[1,2-a]pyridin-2-yl)acetamide] | > 10000 | C (2-3 fold increase) | 1000 to 10000 | >9 |  |  | > 10000 |  |  |  |  |
| CC(C)c1ccc(NC(=O)Cc2cn3cc(F)ccc3n2)nc1 [Example 3-61, 2-(6-fluoroimidazo[1,2-a]pyridin-2-yl)-N-(5-isopropylpyridin-2-yl)acetamide] | > 10000 | A (greater than 4-fold increase) | ≤ 250 | >20 |  | B (0.50 μM≤DC50<0.10 μM) |  |  |  |  |  |
| O=C(CCn1cnc2ccc(Br)cc2c1=O)Nc1ncc(C(F)(F)F)s1 [Example 3-65, 3-(6-bromo-4-oxoquinazolin-3(4H)-yl)-N-(5-(trifluoromethyl)thiazol-2-yl)propanamide] | > 10000 | B (3-4 fold increase) | 500 to 1000 | >13 |  | B (0.50 μM≤DC50<0.10 μM) |  |  |  |  |  |
